ChEMBL document CHEMBL4507291 (2021)

Legend:
[1] = target: Serine/threonine-protein kinase B-raf (Homo sapiens) (UniProt P15056); experiment: BRAF Kinase screen; conditions: Compound concentration 1.0 uM
[2] = target: Ribosomal protein S6 kinase alpha-6 (Homo sapiens) (UniProt Q9UK32); experiment: RPS6KA6 (RSK4) Kinase screen; conditions: Compound concentration 1.0 uM
[3] = target: Rho-associated protein kinase 1 (Homo sapiens) (UniProt Q13464); experiment: ROCK1 Kinase screen; conditions: Compound concentration 1.0 uM
[4] = target: Protein-tyrosine kinase 6 (Homo sapiens) (UniProt Q13882); experiment: PTK6 (Brk) Kinase screen; conditions: Compound concentration 1.0 uM
[5] = tested on: Dual specificity mitogen-activated protein kinase kinase 1 (Homo sapiens), Q02750 [S218D,S222D]; experiment: MAP2K1 (MEK1) S218D S222D Kinase screen; conditions: Compound concentration 1.0 uM
[6] = target: Serine/threonine-protein kinase 26 (Homo sapiens) (UniProt Q9P289); experiment: MST4 Kinase screen; conditions: Compound concentration 1.0 uM
[7] = target: Substance-P receptor (Homo sapiens) (UniProt P25103); experiment: Inhibition of Tachykinin NK1 at 10 µM in the Eurofins-Panlabs radioligand binding assay (Eurofins_assay_255520); design: ligand concentration 0.8 nM; conditions: Compound concentration 10.0 uM
[8] = target: Casein kinase I isoform gamma-1 (Homo sapiens) (UniProt Q9HCP0); experiment: CSNK1G1 (CK1 gamma 1) Kinase screen; conditions: Compound concentration 1.0 uM
[9] = target: Receptor tyrosine-protein kinase erbB-2 (Homo sapiens) (UniProt P04626); experiment: ERBB2 (HER2) Kinase screen; conditions: Compound concentration 1.0 uM
[10] = target: Glutamate receptor ionotropic, kainate (Rattus norvegicus) (UniProt P22756+Q01812+P42260+P42264+Q63273); experiment: Inhibition of Glutamate, Kainate at 10 µM in the Eurofins-Panlabs radioligand binding assay (Eurofins_assay_232700); conditions: Compound concentration 10.0 uM
[11] = target: T1, Beta-adrenergic receptor kinase 1 (Homo sapiens) (UniProt P25098); experiment: ADRBK1 (GRK2) Kinase screen; conditions: Compound concentration 1.0 uM
T1 sequence (whole entry): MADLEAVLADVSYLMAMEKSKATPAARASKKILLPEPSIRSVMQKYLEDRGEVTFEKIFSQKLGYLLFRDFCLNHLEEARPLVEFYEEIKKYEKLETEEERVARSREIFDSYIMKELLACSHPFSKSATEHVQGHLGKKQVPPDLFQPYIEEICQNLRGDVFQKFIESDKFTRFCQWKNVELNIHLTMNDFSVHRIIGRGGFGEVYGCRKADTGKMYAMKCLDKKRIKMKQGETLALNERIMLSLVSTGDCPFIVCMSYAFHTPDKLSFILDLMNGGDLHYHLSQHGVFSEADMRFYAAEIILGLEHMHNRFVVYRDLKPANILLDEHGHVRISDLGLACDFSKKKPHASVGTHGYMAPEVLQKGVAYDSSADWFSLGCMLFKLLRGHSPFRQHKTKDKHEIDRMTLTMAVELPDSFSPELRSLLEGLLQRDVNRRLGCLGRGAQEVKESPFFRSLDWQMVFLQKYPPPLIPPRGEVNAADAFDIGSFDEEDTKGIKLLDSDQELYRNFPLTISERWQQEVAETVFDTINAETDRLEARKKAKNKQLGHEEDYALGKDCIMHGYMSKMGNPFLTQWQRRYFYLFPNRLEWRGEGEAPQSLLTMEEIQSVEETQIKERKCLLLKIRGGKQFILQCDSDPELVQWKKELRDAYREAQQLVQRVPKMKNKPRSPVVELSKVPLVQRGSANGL

[12] = target: Acetylcholinesterase (Homo sapiens) (UniProt P22303); conditions: Compound concentration 10.0 uM
[13] = target: T2, Serine/threonine-protein kinase Sgk2 (Homo sapiens) (UniProt Q9HBY8); experiment: SGK2 Kinase screen; conditions: Compound concentration 1.0 uM
T2 sequence (whole entry): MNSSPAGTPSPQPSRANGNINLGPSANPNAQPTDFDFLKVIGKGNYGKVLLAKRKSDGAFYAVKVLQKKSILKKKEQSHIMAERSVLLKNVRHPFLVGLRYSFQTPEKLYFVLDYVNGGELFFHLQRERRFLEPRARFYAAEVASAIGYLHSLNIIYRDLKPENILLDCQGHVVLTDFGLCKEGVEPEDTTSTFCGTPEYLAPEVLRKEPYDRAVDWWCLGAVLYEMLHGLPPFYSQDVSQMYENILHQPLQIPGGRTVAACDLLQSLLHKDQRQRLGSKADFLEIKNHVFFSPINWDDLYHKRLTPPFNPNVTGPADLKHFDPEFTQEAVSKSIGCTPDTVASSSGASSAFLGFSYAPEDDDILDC

[14] = target: Glutamate NMDA receptor (Rattus norvegicus) (UniProt P35439+Q00959+Q00960+Q00961+Q62645+Q8VHN2+Q9R1M7); conditions: Compound concentration 10.0 uM
[15] = tested on: Proto-oncogene tyrosine-protein kinase receptor Ret (Homo sapiens), P07949 [V804L]; experiment: RET V804L Kinase screen; conditions: Compound concentration 1.0 uM
[16] = target: T3, Serine/threonine-protein kinase BRSK1 (Homo sapiens) (UniProt Q8TDC3); experiment: BRSK1 (SAD1) Kinase screen; conditions: Compound concentration 1.0 uM
T3 sequence (whole entry): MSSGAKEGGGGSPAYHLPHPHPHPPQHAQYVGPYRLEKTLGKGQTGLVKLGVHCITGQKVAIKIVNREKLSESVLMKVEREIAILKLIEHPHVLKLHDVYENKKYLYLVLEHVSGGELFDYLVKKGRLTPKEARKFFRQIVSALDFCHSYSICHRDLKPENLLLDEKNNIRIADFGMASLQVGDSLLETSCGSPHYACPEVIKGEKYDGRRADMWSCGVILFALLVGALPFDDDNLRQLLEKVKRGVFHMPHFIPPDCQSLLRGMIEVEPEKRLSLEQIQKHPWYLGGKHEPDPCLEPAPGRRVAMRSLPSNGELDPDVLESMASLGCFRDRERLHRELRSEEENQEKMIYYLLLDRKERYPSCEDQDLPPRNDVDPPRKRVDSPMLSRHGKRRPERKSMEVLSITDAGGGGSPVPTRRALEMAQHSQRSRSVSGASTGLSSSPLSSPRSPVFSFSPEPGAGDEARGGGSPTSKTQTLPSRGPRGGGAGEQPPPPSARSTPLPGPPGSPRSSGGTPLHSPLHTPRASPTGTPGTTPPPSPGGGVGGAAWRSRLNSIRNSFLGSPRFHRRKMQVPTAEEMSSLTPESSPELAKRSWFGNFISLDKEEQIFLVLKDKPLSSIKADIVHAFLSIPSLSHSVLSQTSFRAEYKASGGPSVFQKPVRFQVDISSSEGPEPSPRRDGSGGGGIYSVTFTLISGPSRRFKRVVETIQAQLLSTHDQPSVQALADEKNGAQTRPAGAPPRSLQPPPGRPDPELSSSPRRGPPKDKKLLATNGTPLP

Measured: inhibition

Receptor tyrosine-protein kinase erbB-2 (Homo sapiens), sequence (P04626 whole entry): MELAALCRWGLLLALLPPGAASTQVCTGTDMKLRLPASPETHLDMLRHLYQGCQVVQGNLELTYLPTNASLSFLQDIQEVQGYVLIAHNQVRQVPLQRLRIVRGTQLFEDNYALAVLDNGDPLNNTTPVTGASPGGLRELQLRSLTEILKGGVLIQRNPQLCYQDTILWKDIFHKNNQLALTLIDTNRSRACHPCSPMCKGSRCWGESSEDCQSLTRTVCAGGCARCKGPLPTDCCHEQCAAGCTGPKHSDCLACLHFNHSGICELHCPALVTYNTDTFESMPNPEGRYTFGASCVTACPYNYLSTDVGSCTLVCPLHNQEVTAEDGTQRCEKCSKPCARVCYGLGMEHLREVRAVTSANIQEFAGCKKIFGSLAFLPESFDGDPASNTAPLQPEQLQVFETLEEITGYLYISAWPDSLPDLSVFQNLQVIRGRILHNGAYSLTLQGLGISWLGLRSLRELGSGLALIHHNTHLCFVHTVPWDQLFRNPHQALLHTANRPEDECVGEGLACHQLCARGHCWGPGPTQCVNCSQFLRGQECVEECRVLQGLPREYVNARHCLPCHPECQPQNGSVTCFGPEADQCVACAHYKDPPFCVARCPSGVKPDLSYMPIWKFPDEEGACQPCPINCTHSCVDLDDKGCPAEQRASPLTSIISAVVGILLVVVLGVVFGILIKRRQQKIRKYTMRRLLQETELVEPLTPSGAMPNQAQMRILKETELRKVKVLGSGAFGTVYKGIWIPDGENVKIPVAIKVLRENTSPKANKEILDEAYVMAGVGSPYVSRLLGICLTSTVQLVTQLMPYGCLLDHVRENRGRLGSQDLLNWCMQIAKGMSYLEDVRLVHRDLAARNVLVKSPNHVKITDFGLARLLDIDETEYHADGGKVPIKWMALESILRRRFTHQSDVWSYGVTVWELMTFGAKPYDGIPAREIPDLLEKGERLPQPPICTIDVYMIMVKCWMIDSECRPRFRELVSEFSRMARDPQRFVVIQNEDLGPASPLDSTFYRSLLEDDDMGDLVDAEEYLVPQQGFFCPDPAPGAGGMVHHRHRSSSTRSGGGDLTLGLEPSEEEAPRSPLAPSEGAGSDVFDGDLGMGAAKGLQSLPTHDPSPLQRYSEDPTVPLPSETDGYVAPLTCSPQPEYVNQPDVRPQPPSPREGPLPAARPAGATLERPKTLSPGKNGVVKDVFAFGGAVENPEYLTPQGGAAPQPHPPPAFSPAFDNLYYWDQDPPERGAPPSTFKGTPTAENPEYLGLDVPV
Serine/threonine-protein kinase B-raf (Homo sapiens), sequence (P15056 whole entry): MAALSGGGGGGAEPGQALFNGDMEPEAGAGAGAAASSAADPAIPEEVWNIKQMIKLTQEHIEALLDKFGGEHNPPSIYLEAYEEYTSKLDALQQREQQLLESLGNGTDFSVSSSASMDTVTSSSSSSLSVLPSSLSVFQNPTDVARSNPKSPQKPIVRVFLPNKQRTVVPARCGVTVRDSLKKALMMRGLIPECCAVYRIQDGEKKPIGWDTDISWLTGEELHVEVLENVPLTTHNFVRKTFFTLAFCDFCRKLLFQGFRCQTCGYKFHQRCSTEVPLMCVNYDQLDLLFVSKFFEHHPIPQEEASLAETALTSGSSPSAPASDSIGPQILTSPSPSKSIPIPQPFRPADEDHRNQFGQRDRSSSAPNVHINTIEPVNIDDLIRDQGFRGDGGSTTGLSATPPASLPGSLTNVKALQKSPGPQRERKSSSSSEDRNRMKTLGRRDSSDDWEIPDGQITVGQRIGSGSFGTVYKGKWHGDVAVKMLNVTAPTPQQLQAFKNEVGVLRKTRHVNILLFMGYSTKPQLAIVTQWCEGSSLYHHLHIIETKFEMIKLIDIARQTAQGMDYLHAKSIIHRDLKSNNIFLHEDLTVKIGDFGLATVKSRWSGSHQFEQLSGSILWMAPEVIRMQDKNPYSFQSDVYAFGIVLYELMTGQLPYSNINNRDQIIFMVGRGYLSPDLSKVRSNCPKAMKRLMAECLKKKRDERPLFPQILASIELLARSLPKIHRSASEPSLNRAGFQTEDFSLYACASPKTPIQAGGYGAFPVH
Casein kinase I isoform gamma-1 (Homo sapiens), sequence (Q9HCP0 whole entry, looked up, canonical isoform): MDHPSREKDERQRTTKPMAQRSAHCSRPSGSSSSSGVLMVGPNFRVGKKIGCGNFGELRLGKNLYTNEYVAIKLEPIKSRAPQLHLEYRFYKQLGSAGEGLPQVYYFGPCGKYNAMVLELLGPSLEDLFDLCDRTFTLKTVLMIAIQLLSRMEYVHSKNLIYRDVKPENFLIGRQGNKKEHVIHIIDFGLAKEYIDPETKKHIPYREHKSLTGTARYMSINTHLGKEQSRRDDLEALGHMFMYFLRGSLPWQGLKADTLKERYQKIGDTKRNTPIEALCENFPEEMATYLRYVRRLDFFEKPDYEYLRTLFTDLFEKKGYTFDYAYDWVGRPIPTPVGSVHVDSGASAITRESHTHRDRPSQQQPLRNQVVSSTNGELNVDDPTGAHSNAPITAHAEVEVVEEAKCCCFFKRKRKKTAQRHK
Proto-oncogene tyrosine-protein kinase receptor Ret (Homo sapiens), P07949 [V804L], sequence (P07949 whole entry V804L): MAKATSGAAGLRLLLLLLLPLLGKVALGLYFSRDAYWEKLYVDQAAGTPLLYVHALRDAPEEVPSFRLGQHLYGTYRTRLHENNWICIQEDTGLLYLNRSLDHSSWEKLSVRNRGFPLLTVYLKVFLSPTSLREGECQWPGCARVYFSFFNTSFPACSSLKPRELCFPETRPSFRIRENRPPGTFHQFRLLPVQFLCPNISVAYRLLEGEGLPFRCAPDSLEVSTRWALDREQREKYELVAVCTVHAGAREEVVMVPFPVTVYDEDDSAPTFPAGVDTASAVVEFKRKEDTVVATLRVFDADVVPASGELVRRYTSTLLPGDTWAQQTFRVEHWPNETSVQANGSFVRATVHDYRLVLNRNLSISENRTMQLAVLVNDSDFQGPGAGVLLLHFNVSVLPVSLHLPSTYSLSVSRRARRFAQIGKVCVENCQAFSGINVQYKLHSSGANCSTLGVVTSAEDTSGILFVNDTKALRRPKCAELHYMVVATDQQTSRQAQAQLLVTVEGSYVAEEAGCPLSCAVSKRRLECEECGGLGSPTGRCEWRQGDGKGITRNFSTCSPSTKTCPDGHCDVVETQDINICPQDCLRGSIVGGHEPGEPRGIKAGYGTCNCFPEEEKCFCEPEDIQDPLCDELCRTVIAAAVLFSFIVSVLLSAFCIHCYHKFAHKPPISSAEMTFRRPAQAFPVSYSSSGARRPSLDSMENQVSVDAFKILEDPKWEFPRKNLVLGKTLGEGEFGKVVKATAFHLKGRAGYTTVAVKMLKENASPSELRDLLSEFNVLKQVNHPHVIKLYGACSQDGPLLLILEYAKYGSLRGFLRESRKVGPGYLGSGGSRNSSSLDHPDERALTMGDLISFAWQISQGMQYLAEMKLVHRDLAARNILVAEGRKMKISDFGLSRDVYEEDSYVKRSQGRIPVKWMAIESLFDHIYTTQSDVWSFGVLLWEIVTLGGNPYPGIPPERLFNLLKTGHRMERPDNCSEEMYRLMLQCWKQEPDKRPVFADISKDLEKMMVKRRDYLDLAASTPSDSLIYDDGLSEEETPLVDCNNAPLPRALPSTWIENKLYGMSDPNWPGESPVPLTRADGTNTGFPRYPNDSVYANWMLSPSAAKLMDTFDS
Ribosomal protein S6 kinase alpha-6 (Homo sapiens), sequence (Q9UK32 whole entry): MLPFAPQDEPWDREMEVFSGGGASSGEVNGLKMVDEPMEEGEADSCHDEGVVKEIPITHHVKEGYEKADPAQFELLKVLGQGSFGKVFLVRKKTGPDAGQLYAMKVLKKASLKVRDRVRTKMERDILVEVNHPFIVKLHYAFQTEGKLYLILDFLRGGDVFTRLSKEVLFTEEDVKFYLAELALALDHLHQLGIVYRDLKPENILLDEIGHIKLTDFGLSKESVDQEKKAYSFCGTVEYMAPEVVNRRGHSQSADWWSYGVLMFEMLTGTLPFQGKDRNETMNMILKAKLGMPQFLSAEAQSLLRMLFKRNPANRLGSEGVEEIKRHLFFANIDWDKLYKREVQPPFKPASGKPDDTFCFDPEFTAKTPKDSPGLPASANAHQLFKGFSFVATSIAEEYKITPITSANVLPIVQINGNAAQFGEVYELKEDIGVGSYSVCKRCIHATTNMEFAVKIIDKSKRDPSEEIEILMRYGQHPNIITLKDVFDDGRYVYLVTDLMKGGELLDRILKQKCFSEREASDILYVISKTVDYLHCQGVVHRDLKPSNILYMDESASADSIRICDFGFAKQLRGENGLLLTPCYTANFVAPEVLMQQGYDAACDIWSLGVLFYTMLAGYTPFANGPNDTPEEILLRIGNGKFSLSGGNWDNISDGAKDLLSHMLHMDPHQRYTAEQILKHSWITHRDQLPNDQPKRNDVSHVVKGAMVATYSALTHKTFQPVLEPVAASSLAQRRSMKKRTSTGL
Substance-P receptor (Homo sapiens), sequence (P25103 whole entry, canonical isoform): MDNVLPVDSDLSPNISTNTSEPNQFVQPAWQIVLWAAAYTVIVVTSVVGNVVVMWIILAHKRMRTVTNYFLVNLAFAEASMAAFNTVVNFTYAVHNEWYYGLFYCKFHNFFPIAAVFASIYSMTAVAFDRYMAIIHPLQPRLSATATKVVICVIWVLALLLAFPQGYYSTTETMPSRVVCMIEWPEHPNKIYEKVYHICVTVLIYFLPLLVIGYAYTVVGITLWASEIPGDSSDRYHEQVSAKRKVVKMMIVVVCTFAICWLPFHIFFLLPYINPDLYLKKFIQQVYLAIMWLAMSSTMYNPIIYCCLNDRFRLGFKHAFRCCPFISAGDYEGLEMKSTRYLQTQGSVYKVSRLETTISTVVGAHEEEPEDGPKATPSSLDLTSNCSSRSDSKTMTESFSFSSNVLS

C[C@@H]1CN(c2cc(-c3n[nH]c4ccc(OC5(C)CC5)cc34)ncn2)C[C@H](C)O1 [MLi-2]
inactive: [1] 27.1% | [2] 3.23% | [3] -0.899% | [4] 2.74% | [5] 6.92% | [6] 6.89% | [7] 22% | [8] -1.82% | [9] -2.46% | [10] 12% | [11] 3.84% | [12] -2% | [13] 1.36% | [14] 4% | [15] 5.69% | [16] 4.76%
